Measured values taken from patent US20250214977A1, “STAT6 INHIBITORS AND USES THEREOF” (Kymera Therapeutics, Inc., priority 2024, published 2025).

tested on: Phosphorylation of STAT6 in human A549 cells; assay: Phosphorylated STAT6 (pSTAT6) flow cytometry assay in human A549 cells; type: cell-based; details: read-out: STAT6 IL4 pSTAT6 assay in A549 cells: Average IC50
Source text: Example 3. Phosphorylated STAT6 (pSTAT6) Flow Cytometry Assay in Human A549 Cells
Phosphorylation of STAT6 in human A549 cells was quantitatively measured using flow cytometry technology.

Row | IC50 [nM] | Compound
1 | 100 to 1000 | COc1ccccc1-c1cc(C2=CCCN(C(=O)CCn3ccnn3)C2)c(F)c2[nH]c(C(=O)N3CCC(n4c(=O)[nH]c5ncccc54)CC3)cc12 [Example I-981]
2 | < 100 | CN(C)C(=O)c1cc2cc(C3=CCCN(C(=O)CCn4ccnn4)C3)cc(-c3cc(F)ccc3C(F)(F)F)c2o1 [Example I-1081]
3 | < 100 | CN(C)C(=O)c1cc2cc(C3=CCCN(C(=O)CCn4ccnn4)C3)cc(-c3cnn(C)c3)c2o1 [Example I-1077]
4 | 100 to 1000 | CN(C)C(=O)c1cc2cc(C3=CCCN(C(=O)CCn4ccnn4)C3)cc(CN3CCCCC3)c2o1 [Example I-1178]
5 | < 100 | CCn1c(N2CCN(C(=O)c3cc4c(-c5ccccc5OC)cc(C5=CCCN(C(=O)CCn6ccnn6)C5)c(F)c4[nH]3)CC2)nc2ccccc21 [Example I-942]
6 | < 100 | COc1ccccc1-c1cc(C2=CCCN(C(=O)CCn3ccnn3)C2)c(F)c2[nH]c(C(=O)N3CCN(c4cn(C)c5ncncc45)CC3)cc12 [Example I-1016]
7 | 100 to 1000 | COc1cc(N2CCN(C(=O)c3cc4c(-c5ccccc5OC)cc(C5=CCCN(C(=O)CCn6ccnn6)C5)c(F)c4[nH]3)CC2)c2ccccc2c1 [Example I-957]
8 | < 100 | COc1cc(N2CCN(C(=O)c3cc4c(-c5ccccc5OC)cc(C5=CCCN(C(=O)CCn6ccnn6)C5)c(F)c4[nH]3)CC2)c2ccnn2c1 [Example I-926]
9 | < 100 | COc1ccccc1-c1cc(C2=CCCN(C(=O)CCn3ccnn3)C2)c(F)c2[nH]c(C(=O)N3CCN(Cc4c(C)nn(C)c4C)CC3)cc12 [Example I-1182]
10 | < 100 | COc1ccccc1-c1cc(C2=CCCN(C(=O)CCn3ccnn3)C2)c(F)c2[nH]c(C(=O)N3CCN(c4nc5ccccc5n4CC4CC4)CC3)cc12 [Example I-943]
11 | < 100 | COc1ccccc1-c1cc(C2=CCCN(C(=O)CCn3ccnn3)C2)c(F)c2[nH]c(C(=O)N3CCNC(=O)[C@@H]3C)cc12 [Example I-996]
12 | < 100 | COC(=O)c1cc(N2CCN(C(=O)c3cc4c(-c5ccccc5OC)cc(C5=CCCN(C(=O)CCn6ccnn6)C5)c(F)c4[nH]3)CC2)cn1C [Example I-1004]
13 | < 100 | COc1ccccc1-c1cc(C2=CCCN(C(=O)CCn3ccnn3)C2)c(F)c2[nH]c(C(=O)N3CCN(c4ccc(C#N)cc4F)CC3)cc12 [Example I-1009]
14 | < 100 | COc1ccccc1-c1cc(C2=CCCN(C(=O)CCn3ccnn3)C2)c(F)c2[nH]c(C(=O)N3CCN(c4cc(C)c5ncnn5c4)CC3)cc12 [Example I-909]
15 | > 100000 | COc1ccccc1-c1cc([C@H]2CCCN(C(=O)CCn3ccnn3)C2)c(F)c2[nH]c(C(=O)N(C)C)cc12 [Example I-1195]
16 | < 100 | COc1ccccc1-c1cc(C2=CCCN(C(=O)CCn3ccnn3)C2)c(F)c2[nH]c(C(=O)N3CCN(c4cnn(C)c4C#N)CC3)cc12 [Example I-1005]
17 | 100 to 1000 | COc1cc(F)cnc1N1CCN(C(=O)c2cc3c(-c4ccc(NC5CCCC5)cc4)cc(C4=CCCN(C(=O)CCn5ccnn5)C4)c(F)c3[nH]2)CC1 [Example I-1124]
18 | < 100 | CN(C)C(=O)c1cc2cc(C3=CCCN(C(=O)CCn4ccnn4)C3)cc(-c3ccc4cnn(C)c4c3)c2o1 [Example I-1072]
19 | < 100 | COc1ccccc1-c1cc(C2=CCCN(C(=O)CCn3ccnn3)C2)c(F)c2[nH]c(C(=O)N3CCC(=O)N(C)CC3)cc12 [Example I-994]
20 | < 100 | COc1cc(F)ccc1-c1cc(C2=CCCN(C(=O)CCn3ccnn3)C2)cc2[nH]c(C(=O)N(C)C)cc12 [Example I-1055]
21 | < 100 | COc1cc(F)cnc1N1CCN(C(=O)c2cc3c(C4=CCCOC4)cc(C4=CCCN(C(=O)CCn5ccnn5)C4)c(F)c3[nH]2)CC1 [Example I-1126]
22 | < 100 | COc1cc(C)c(-c2cc(C3=CCCN(C(=O)CCn4ccnn4)C3)cc3cc(C(=O)N(C)C)oc23)cc1C [Example I-1078]
23 | 100 to 1000 | COc1ccccc1/C=C/c1cc(C2=CCCN(C(=O)CCn3ccnn3)C2)c(F)c2[nH]c(C(=O)N3CCN(c4ncc(F)cc4OC)CC3)cc12 [Example I-1130]
24 | < 100 | COc1cc(F)cnc1N1CCN(C(=O)c2cc3c(C4=CCN(C(C)C)CC4)cc(C4=CCCN(C(=O)CCn5ccnn5)C4)c(F)c3[nH]2)CC1 [Example I-1133]

The next lines start with the compound.

Row | Compound | IC50 [nM]
25 | COc1c(-c2cc(C3=CCCN(C(=O)CCn4ccnn4)C3)c(F)c3[nH]c(C(=O)N4CCN(C5CC5)CC4)cc23)cnc2ccccc12 [Example I-449] | < 100
26 | CC(=O)N1CCC=C(c2cc(-c3cnc4[nH]cc(C)c4c3)c3cc(C(=O)N(C)C)[nH]c3c2F)C1 [Example I-897] | 100 to 1000
27 | CN(C)C(=O)c1cc2ccc(C3=CCCN(C(=O)C4Cc5ccccc5CN4C=O)C3)cc2[nH]1 (stereo not shown) [Example I-822] | 100 to 1000
28 | COc1ccncc1-c1cc(C2=CCCN(C(=O)CCn3ccnn3)C2)c(F)c2[nH]c(C(=O)N3CCN(c4ccccn4)C(C)C3)cc12 (stereo not shown) [Example I-568] | < 100
29 | COc1cnc(N2CCN(C(=O)c3cc4c(-c5ccncc5OC)cc(C5=CCCN(C(=O)CCn6ccnn6)C5)c(F)c4[nH]3)CC2)c(OC)c1 [Example I-436] | < 100
30 | COc1ccccc1-c1cc(C2=CCCN(C(=O)CCn3ccnn3)C2)c(F)c2[nH]c(C(=O)N3CCN(c4ncccc4OC(F)F)CC3)cc12 [Example I-358] | < 100
31 | CN(C)C(=O)c1cc2cc(C3=CCCN(C(=O)CCn4ccnn4)C3)cc(NCc3ccc(F)cc3)c2o1 [Example I-872] | 100 to 1000
32 | COc1ccc(-c2cc(C3=CCCN(C(=O)CCn4ccnn4)C3)cc3cc(C(=O)N(C)C)oc23)c(C#N)c1 [Example I-854] | < 100
33 | COc1nc(N2CCN(C(=O)c3cc4c(-c5cnc6ccccc6c5OC)cc(C5=CCCN(C(=O)CCn6ccnn6)C5)c(F)c4[nH]3)CC2)ccc1F [Example I-469] | 100 to 1000
34 | COc1cc(F)cnc1N1CCN(C(=O)c2cc3c(-c4cc(C)nc(C)c4)cc(C4=CCCN(C(=O)CCn5ccnn5)C4)c(F)c3[nH]2)CC1 [Example I-632] | < 100
35 | CCc1ccccc1-c1cc(C2=CCCN(C(=O)CCn3ccnn3)C2)c(F)c2[nH]c(C(=O)N3CCN(c4ncccc4OC)CC3)cc12 [Example I-562] | < 100
36 | CCc1nc(C)ccc1-c1cc(C(=O)N2CCN(c3ncc(F)cc3OC)CC2)cc2cc(C3=CCCN(C(=O)C(C)C(=O)O)C3)n(CC3CC3)c12 (stereo not shown) [Example I-539] | < 100
37 | CCc1cc(C)ncc1-c1cc(C2=CCCN(C(=O)CCn3ccnn3)C2)c(F)c2[nH]c(C(=O)N3CCN(c4ccc(F)cc4OC)CC3)cc12 [Example I-739] | < 100
38 | COc1ncccc1-c1cc(C2=CCCN(C(=O)CCn3ccnn3)C2)c(F)c2[nH]c(C(=O)N3CCN(c4ncccc4OC4CC4)CC3)cc12 [Example I-595] | < 100
39 | COc1ccccc1-c1cc(C2=CCCN(C(=O)CCn3ccnn3)C2)c(F)c2[nH]c(C(=O)N3CCN(c4ncccc4OC(C)C)CC3)cc12 [Example I-332] | < 100
40 | C[C@H](Cn1ccnn1)C(=O)N1CCC=C(c2ccc3oc(C(=O)N(C)C)cc3c2)C1 (single isomer, unassigned) [Example I-818] | 100 to 1000
41 | COc1ccccc1-c1cc(C2=CCCN(C(C)=O)C2)c(F)c2[nH]c(C(=O)N3CCN(c4ncccc4OC)CC3)cc12 [Example I-553] | 100 to 1000

Row | Compound | IC50 [nM]
42 | COc1ccccc1-c1cc(C2=CCCN(C(=O)CCn3cccn3)C2)c(F)c2[nH]c(C(=O)N3CCN(c4ncccc4OC4CC4)CC3)cc12 [Example I-345] | < 100
43 | CCc1cc(C)ncc1-c1cc(C2=CCCN(C(=O)CCn3ccnn3)C2)c(F)c2[nH]c(C(=O)N3Cc4cnn(CC)c4C3)cc12 [Example I-529] | < 100
44 | COc1cc(F)cnc1N1CCN(C(=O)c2cc3c(-c4cccc(CO)c4C)cc(C4=CCCN(C(=O)CCn5ccnn5)C4)c(F)c3[nH]2)CC1 [Example I-616] | > 100000
45 | COc1cccnc1N1CCN(C(=O)c2cc3c(-c4ccc5ccccc5c4OC)cc(C4=CCCN(C(=O)CCn5ccnn5)C4)c(F)c3[nH]2)CC1 [Example I-396] | > 100000
46 | CN(C)C(=O)c1cc2ccc(C3=CCCN(C(=O)CCc4nccs4)C3)cc2[nH]1 [Example I-821] | 100 to 1000
47 | COc1ccccc1-c1cc(C2=CCCN(C(=O)CCn3ccnn3)C2)c(F)c2[nH]c(C(=O)N3CCN(c4nccc(-c5ccccc5)n4)CC3)cc12 [Example I-904] | 100 to 1000
48 | CCCc1cc(C2=CCCN(C(=O)CCn3ccnn3)C2)c(F)c2[nH]c(C(=O)N3CCN(c4ncc(F)cc4OC)CC3)cc12 [Example I-693] | > 100000
49 | COc1ccccc1-c1cc(C2=CCCN(C(=O)C3Cc4ccccc4CN3C=O)C2)cc2cc(C(=O)N(C)C)oc12 (stereo not shown) [Example I-838] | < 100
50 | CC(=O)N1CCC=C(c2cc(-c3ccc4cncnc4c3)c3cc(C(=O)N(C)C)[nH]c3c2F)C1 [Example I-887] | 100 to 1000
51 | COc1ccccc1-c1cc(C2CCCN(C(=O)CCn3ccnn3)C2)c(F)c2[nH]c(C(=O)N3CCN(c4ncccc4OC)CC3)cc12 (stereo not shown) [Example I-348] | < 100
52 | 5-(1-(2-formyl-1,2,3,4-tetrahydroisoquinoline-3-carbonyl)-1,2,5,6-tetrahydropyridin-3-yl)-7-(2-methoxyphenyl)-N,N-dimethylbenzofuran-2-carboxamide [Example I-803] | > 100000
53 | CCc1nc(C)ccc1-c1cc(C2=CCCN(C(=O)CCn3ccnn3)C2)c(F)c2[nH]c(C(=O)N3CCN(c4ncc(F)cc4OC)CC3)cc12 [Example I-735] | < 100
54 | CCc1ccncc1-c1cc(C2=CCCN(C(=O)CCn3ccnn3)C2)c(F)c2[nH]c(C(=O)N3CCN(C4CC4)CC3)cc12 [Example I-473] | < 100
55 | COc1ccccc1-c1cc(C2=CCCN(C(=O)CCn3ccnn3)C2)c(F)c2[nH]c(C(=O)N3CCN(c4cc(C#N)ccn4)CC3)cc12 [Example I-875] | < 100
56 | COc1ccncc1-c1cc(C2=CCCN(C(=O)CCn3ccnn3)C2)c(F)c2[nH]c(C(=O)N3CCN(c4nnccc4OC)CC3)cc12 [Example I-467] | < 100
57 | CN(C)C(=O)c1cc2ccc(C3=CCCN(C(=O)CCc4nncs4)C3)cc2[nH]1 [Example I-828] | 100 to 1000
58 | COc1ccccc1-c1cc(C2CCCN(C(=O)CCn3ccnn3)C2)c(F)c2[nH]c(C(=O)N3CCN(c4ncccc4OC4CC4)CC3)cc12 (stereo not shown) [Example I-364] | < 100
